According to PubChem BioAssay (NCI):
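Protocol summary: plate cells (96-well), add compound at 5 concentrations, incubate 48 h, interpolate endpoints linearly. TGI: concentration producing complete growth inhibition.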

What was measured:
Assay in all cases: inhibition of tumour cell growth, NCI panel, 48 h
M14 melanoma = test system: M14 melanoma
OVCAR-4 ovarian = test system: OVCAR-4 ovarian
DMS 273 small cell lung = test system: DMS 273 small cell lung
HT29 colon = test system: HT29 colon
SK-OV-3 ovarian = test system: SK-OV-3 ovarian
CCRF-CEM leukemia = test system: CCRF-CEM leukemia
EKVX NSCLC = test system: EKVX NSCLC
SK-MEL-2 melanoma = test system: SK-MEL-2 melanoma
ACHN renal = test system: ACHN renal
786-0 renal = test system: 786-0 renal
SN12C renal = test system: SN12C renal
UO-31 renal = test system: UO-31 renal
TK-10 renal = test system: TK-10 renal
LXFL 529 NSCLC = test system: LXFL 529 NSCLC
SK-MEL-28 melanoma = test system: SK-MEL-28 melanoma
K-562 leukemia = test system: K-562 leukemia
RXF-631 renal = test system: RXF-631 renal
CAKI-1 renal = test system: CAKI-1 renal
DMS 114 small cell lung = test system: DMS 114 small cell lung
IGROV1 ovarian = test system: IGROV1 ovarian
SNB-19 CNS = test system: SNB-19 CNS
SK-MEL-5 melanoma = test system: SK-MEL-5 melanoma
KM12 colon = test system: KM12 colon
HOP-92 NSCLC = test system: HOP-92 NSCLC
SF-295 CNS = test system: SF-295 CNS
OVCAR-8 ovarian = test system: OVCAR-8 ovarian
KM20L2 colon = test system: KM20L2 colon
SNB-75 CNS = test system: SNB-75 CNS
OVCAR-5 ovarian = test system: OVCAR-5 ovarian
LOX IMVI melanoma = test system: LOX IMVI melanoma
HOP-18 NSCLC = test system: HOP-18 NSCLC
XF 498 CNS = test system: XF 498 CNS
U251 CNS = test system: U251 CNS
OVCAR-3 ovarian = test system: OVCAR-3 ovarian
UACC-257 melanoma = test system: UACC-257 melanoma
HCT-116 colon = test system: HCT-116 colon
UACC-62 melanoma = test system: UACC-62 melanoma
DLD-1 colon = test system: DLD-1 colon
HL-60(TB) leukemia = test system: HL-60(TB) leukemia
MOLT-4 leukemia = test system: MOLT-4 leukemia
SNB-78 CNS = test system: SNB-78 CNS
MALME-3M melanoma = test system: MALME-3M melanoma
RPMI-8226 leukemia = test system: RPMI-8226 leukemia
SW-620 colon = test system: SW-620 colon
HCC-2998 colon = test system: HCC-2998 colon
NCI-H460 lung = test system: NCI-H460 lung
M19-MEL melanoma = test system: M19-MEL melanoma
A549 NSCLC = test system: A549 NSCLC
HCT-15 colon = test system: HCT-15 colon
RXF 393 renal = test system: RXF 393 renal
HOP-62 NSCLC = test system: HOP-62 NSCLC
COLO 205 colon = test system: COLO 205 colon
NCI-H226 lung = test system: NCI-H226 lung

Measured: TGI

C[Si](C)(C)CC(N)=O
> 100 µM: all assays above
